Assay results reported in patent US20210196779A1, “Compositions and Methods for Treating Steroid Hormone-Related Diseases or Disorders” (YALE UNIVERSITY, priority 2018, published 2021).

How the values were obtained:
Format in all cases: cell-based
[1] = system: LNCaP cells; test: Cell growth assay, LNCaP prostate cancer cells
Method: (§1) 22RV1 or LNCaP prostate cancer cells were grown in corning T75 cell culture flasks in RPMI1640 medium supplemented with 5% FBS, 50 μg/ml Kanamycin in a 37° C., 5% CO2 incubator.
(§2) 20,000 cells in 1 ml of medium (phenol red free RPMI1640, 5% charcoal-dialysis FBS, 50 μg/ml Kanamyacin) were seeded per well of a 24-well plate and incubated in a 37° C. incubator with 5% CO2 overnight. Different concentrations of herbal extract were added to each well in order to have final concentrations from 50 μg/ml to 500 μg/ml. […] For glucocorticoid receptor overexpressed LNCaP cells, dexamethasone (50 nM) was used to stimulate glucocorticoid receptor activity. For all breast cancer cells, E2 (10 nM) was used to stimulate ER activity. Control medium without any steroid hormone was used as a control setting. After 4 days of incubation, cells were fixed and stained for 2 h with 0.5% methylene blue in 50% ethanol, followed by washing with tap water to remove unbound dye. Plates were air dried and then cells were dissolved in 1% sarkosyl (sodium lauroyl sarcosinate) by shaking at room temperature for 3 h. […] All experiments were performed in triplicate wells and were repeated at least three times.

[2] = system: LNCaP-GR (GR overexpressing) cells; test: Cell growth assay, GR overexpressing LNCaP cells; conditions: DEX stimulated
Method: as §2

[3] = system: 22Rv1 cells; test: Cell growth assay, 22Rv1 prostate cancer cells; conditions: in the presence or absence of DHT and DEX
Method: as §1, §2

[4] = target: T1, GR (stimulated with DEX) (Homo sapiens, UniProt P04150); test: GR driven luciferase activity (DEX) in LNCaP-GR cells; conditions: LNCaP-GR luciferase reporter cells
T1 construct: expressed in transfected cells; host or cells: LNCaP (LNCaP-GR)
Method: Both LNCaP and GR overexpressing LNCaP cells were carrying luciferase reporters with AR response elements.
(§3) Reporter cells were treated with herbal extracts at 30, 100, 300, and 1000 μg/ml for 24 h in a 37° C.-CO2 incubator. DHT (25 nM) was used to stimulate androgen receptor activity. Dexamethasone (50 nM) was used to stimulate glucocorticoid receptor activity Cells were lysed using luciferase lysis buffer after which luciferase buffer with luciferin was added to generate luminescence. Luminescence was recorded using a luminescence microplate reader.

[5] = system: androgen receptor (AR); test: PSA-luciferase reporter assay, DHT induced, 22RV1 cells; conditions: equivalent doses, 22RV1 cells in the presence of DHT
Method: 22RV1 or LNCaP prostate cancer cells were used in the screening study. 22RV1 or LNCaP cell lines were stably transfected with PSA promoter-PGL4.2 luciferase reporter. DHT (25 nM) was used to stimulate androgen receptor activity for 24 h.
as §3

T1 sequence (P04150 whole entry): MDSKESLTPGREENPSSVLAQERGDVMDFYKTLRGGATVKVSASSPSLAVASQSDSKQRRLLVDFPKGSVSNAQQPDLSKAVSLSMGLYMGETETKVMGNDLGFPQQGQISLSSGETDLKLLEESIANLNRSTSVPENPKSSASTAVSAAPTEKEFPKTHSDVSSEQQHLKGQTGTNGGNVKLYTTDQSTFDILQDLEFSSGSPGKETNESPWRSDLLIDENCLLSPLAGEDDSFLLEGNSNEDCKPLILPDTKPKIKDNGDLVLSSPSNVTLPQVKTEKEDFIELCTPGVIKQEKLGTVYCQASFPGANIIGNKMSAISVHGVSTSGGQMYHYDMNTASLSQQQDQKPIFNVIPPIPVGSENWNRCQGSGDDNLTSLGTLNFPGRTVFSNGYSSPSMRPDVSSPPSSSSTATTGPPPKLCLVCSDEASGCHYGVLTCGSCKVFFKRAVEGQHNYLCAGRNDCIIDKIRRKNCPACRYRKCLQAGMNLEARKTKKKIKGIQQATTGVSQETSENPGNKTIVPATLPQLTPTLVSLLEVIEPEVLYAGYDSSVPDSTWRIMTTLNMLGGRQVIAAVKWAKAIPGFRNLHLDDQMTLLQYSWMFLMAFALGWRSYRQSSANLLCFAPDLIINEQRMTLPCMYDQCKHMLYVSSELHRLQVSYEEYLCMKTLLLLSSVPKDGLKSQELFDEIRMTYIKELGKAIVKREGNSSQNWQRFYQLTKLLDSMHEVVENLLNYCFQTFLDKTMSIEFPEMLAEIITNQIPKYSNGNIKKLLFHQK

SMILES | susceptibility of LNCaP cell growth to treatment (in words) ([1]; in the absence of DHT) | sensitivity of LNCaP cell growth to treatment (in words) ([1]; in the presence of DHT) | resistance of LNCaP-GR cell growth (in words) [2] | growth inhibitory effect on 22RV1 cells (in words) [3] | inhibition of DEX induced transcriptional response [4] | inhibitory effect on AR mediated transcriptional response [5]
CNC(=O)c1ccc(N2C(=S)N(c3ccc(C#N)c(C(F)(F)F)c3)C(=O)C2(C)C)cc1F [Enzalutamide, reference compound] | not be susceptible | more sensitive | resistant | resistant | but not DEX induced transcriptional response | 
Cc1c(O)cc2c(c1O)C(=O)c1ccc(O)cc1C2=O [TMT, 1,3,6-Trihydroxy-2-methyl-9,10-anthracenedione] |  |  |  |  |  | very weak activity
